Measured values published in PMC7956517, “Induction of Apoptosis and Regulation of MicroRNA Expression by (2E,6E)-2,6-bis-(4-hydroxy-3-methoxybenzylidene)-cyclohexanone (BHMC) Treatment on MCF-7 Breast Cancer Cells” (Molecules, 2021).

Tests used:
[1] = tested on: MCF-7 cells; test: MTT cell viability assay, MCF-7; type: cell-based, human; conditions: for IC50: Homo sapiens, MCF7, MCF-7, MTT
Experimental: (§1) The MTT cell viability assay for MCF-7, MDA-MB-231 and MCF 10A cells were conducted according to a previously reported protocol. MCF-7, MDA-MB-231, and MCF-10A were seeded in a 96-well plate at a concentration of 0.8 × 10^5 cells/mL and left overnight in a CO2 incubator set at 37 °C. Then, BHMC with 2-fold dilution ranging between 180 and 3 µM was added to the respective cell lines while the last row of the 96-well plate served as untreated control cells. After 24, 48, and 72 h of incubation, 20 µL of 5 mg/mL MTT solution was added to all wells and the plate was further incubated for three hours. Then, 180 µL of supernatant was carefully discarded and added with 100 µL of DMSO to solubilize the purple crystals. Optical density was measured at 570 nm wavelength using ELISA Reader (Bio-tek Instrument, Winooski, Vermont, USA). The percentage of cell viability was calculated following deduction of the blank cell absorbance using the formula (Equation (1)):(1) Cell viability % =Absorbance of treated cells/Absorbance of untreated control× 100%
(§2) The dose–response curve was plotted, and the concentration that yields 50% inhibition of cell growth (IC50) was obtained as a parameter for cytotoxicity. Starting from this point, BHMC with IC50 value was used throughout the study to induce cell death. On the other hand, selectivity index (SI) was obtained by using the following formula (Equation (2)):(2) Selectivity index SI =IC50 of MCF−10A/IC50 of MCF−7 or MDA−MB−231

[2] = tested on: MDA-MB-231 cells; test: MTT cell viability assay, MDA-MB-231; type: cell-based, human; conditions: for IC50: Homo sapiens, MDA-MB-231, MTT
Experimental: as §1, §2

[3] = tested on: MCF-10A cells; test: MTT cell viability assay, MCF-10A; type: cell-based; conditions: Homo sapiens
Experimental: as §1, §2

[4] = tested on: MCF-7 cells; test: Flow cytometry cell cycle analysis; type: cell-based, human; conditions: MCF-7, BHMC at IC50 (8.2 µM in figure; 12.50 µM in methods)
Experimental: (§3) MCF-7 cells were seeded at 0.8 × 10^5 cells/mL in a 6-well plate and left overnight in a CO2 incubator set at 37 °C. […] Untreated control was prepared simultaneously. After 24, 48, or 72 h of incubation, the cell was harvested using TrypLE (Gibco Thermo Fisher Scientific, Waltham, MA, USA), washed with phosphate buffer saline (PBS), and subjected to the following assays. All assays were tested with three biological replicates.
Cell cycle progression of control and BHMC-treated MCF-7 cells was evaluated by staining with BD Cycletest Plus kit (Becton Dickinson, Franklin Lakes, NJ, USA) and subjected to BD FACS Calibur flow cytometer (Becton Dickinson, USA) analysis. In brief, harvested cells were incubated with 250 µL of trypsin buffer for 10 min followed by addition of 200 µL of trypsin inhibitor containing RNase buffer. After 10 min of incubation, the samples were finally stained with 200 µL of PI solution. Flow cytometer analysis was carried out after 10 min of incubation with the PI stain solution. A minimum of 10,000 cells in the population was captured. Three independent experiments were repeated with similar parameter.

[5] = tested on: MCF-7 cells; test: Flow cytometry Annexin V apoptosis detection; type: cell-based, human; conditions: MCF-7, Annexin V/7ADD
Experimental: as §3
Cell apoptosis assay was conducted based on a study method with some changes. […] In brief, harvested cells were washed and re-suspended in 100 µL of PBS. […] Approximately, 10,000 cells in the population were captured. The experiment was qualitatively repeated for three times.

[6] = tested on: MCF-7 cells; test: miRNA microarray analysis; type: cell-based, human
Experimental: (§4) Total RNAs including small RNAs were isolated from MCF-7 treated with BHMC using miRNeasy kit (Qiagen, Hilden, Germany) according to manufacturer’s instructions. The quality of extracted RNA was assessed by the NanoDrop-1000 Spectrophotometer (NanoDrop Technologies Inc., Wilmington, DE, USA) and Agilent 2100 Bioanalyzer, and samples with A260/A280 ratio between 1.8 to 2.1 and an RIN value of 8 and above was used for further analysis.
Total RNA (8 µL) of control and BHMC-treated MCF-7 cells was directly labelled using Flash Tag Biotin HSR Labeling kits (Affymetrix, Santa Clara, CA, USA) in accordance with the instructions of the manufacturer. RNA was heated to 80 °C for 10 min before labeling to inactivate any residual DNase activity. RNA was hybridized for 42 h to the GeneChip miRNA 2.0 array (Affymetrix, Santa Clara, CA, USA). The GeneChip miRNA 2.0 arrays contain 100% miRBase version 15 coverage of 131 organisms and contain probes for 3439 humans non-coding RNAs (ncRNAs), including 1105 miRNAs and 2334 other ncRNAs (including scaRNAs and snoRNAs). Washing and staining were automatically performed using the Affymetrix Fluidics Station 450 (Affymetrix, Santa Clara, CA, USA), and probe intensities were measured using the GeneChip® Scanner (Affymetrix, Santa Clara, CA, USA).
Data discussed in this publication have been deposited in the NCBI Gene Expression Omnibus and are accessible through the GEO Series accession number GSE155467. Using the gene expression workflow in Partek Genomics Suite software (Cat 4462922G, Partek Inc., St. Louis, MO, USA), the CEL files generated by the Affymetrix data file were converted into .nFMT files. […] Differentially expressed miRNAs (>5-fold change, p < 0.05) were identified using analysis of variance (ANOVA) analysis.

[7] = tested on: MCF-7 cells; test: Real-time quantitative PCR of miRNAs expression; type: cell-based, human; conditions: qPCR, BHMC-treated vs untreated MCF-7
Experimental: as §4
One microgram (μg) of total RNA was used in reverse transcription and the process was conducted using the miScript II RT Kit (Qiagen/SABiosciences, Hilden, Germany) according to the manufacturer protocol. Quantitative RT-PCR was carried out using CFX96 (BioRad, Hercules, CA, USA). […] The miRNA-specific primers for miR-3195, miR-30a, miR-6813-5p, and miR-6132 were designed by miRprimer and commercially synthesized as listed in Table 3. The expression of putative miRNAs was evaluated using geNorm algorithms. PCR reactions were performed in triplicate for each sample. The relative amounts of miRNAs were normalized against reference miRNAs and the fold change for each miRNA was calculated by the 2^−ΔΔCt method.

[8] = tested on: MCF-7 cells; test: Real-time quantitative PCR of mRNA expression (SNAIL, VEGF); type: cell-based, human; conditions: qPCR, BHMC-treated vs untreated MCF-7
Experimental: as §4
Real-time quantitative PCR was performed on SNAIL and VEGF, which were the target of miR-30a and miR-3195 [31]. One microgram (μg) of total RNA was reverse transcripted using the QuantiTect Reverse Transcription Kit (Qiagen, USA) according to the manufacturer protocol. Primers were designed using Primer-Blast (Table 2) and synthesized commercially. NEXpro qPCR Evagreen Master Mix (NEX Diagnostics, Gyeonggi-do, Korea) was used to perform the mRNA qPCR based on the manufacturer protocol. The qPCR system CFX96 (BioRad, USA) was used and the qPCR conditions were: 50 °C for 2 min, 95 °C for 10 min, and 40 cycles of 95 °C for 15 s, and 60 °C for 1 min. A final melting curve was performed to ensure that only one amplicon was present. The relative amounts of mRNAs were normalized against reference gene beta-actin (ACTB) as described previously and the fold change for each mRNA was calculated by the 2^−ΔΔCt method.

[9] = tested on: MCF-7 cells; test: Light and fluorescent (AO/PI) microscopic observation; type: cell-based, human; conditions: MCF-7, 8.2 µM of BHMC, 48 h
Experimental: as §3
Morphology of control and BHMC-treated MCF-7 cells was observed under light microscope (Nikon, Minato City, Japan). For fluorescent microscope observation, control and BHMC-treated MCF-7 cells (2 × 10^5 cells) were stained with 10 μL of 100 μg/mL acridine orange (AO) and 100 μg/mL propidium iodide (PI) for 10 min. After that, the cells were washed and examined under fluorescent microscope (Nikon FC-35DX, Minato City, Japan) using an excitation filter and barrier filter at 450–490 nm and long pass filter of 520 nm.

[10] = IC50 of MCF-10A / IC50 of MCF-7, 24 h
[11] = IC50 of MCF-10A / IC50 of MCF-7, 48 h
[12] = IC50 of MCF-10A / IC50 of MCF-7, 72 h
[13] = IC50 of MCF-10A / IC50 of MDA-MB-231, 24 h
[14] = IC50 of MCF-10A / IC50 of MDA-MB-231, 48 h
[15] = IC50 of MCF-10A / IC50 of MDA-MB-231, 72 h

COc1cc(/C=C2\CCC/C(=C\c3ccc(O)c(OC)c3)C2=O)ccc1O [BHMC, (2E,6E)-2,6-bis-(4-hydroxy-3-methoxybenzylidene)-cyclohexanone]
IC50 ([1]; 24 h): 23.5 ± 2.41 µM
IC50 ([1]; 48 h): 12.5 ± 1.87 µM
IC50 ([1]; 72 h): 11 ± 1.33 µM
SI MCF10A/MCF7 [1, 10]: 7.66
SI MCF10A/MCF7 [1, 11]: 8.64
SI MCF10A/MCF7 [1, 12]: 8.96
selectivity index (SI) MCF-7 against MCF-10A ([1]; summary over 24, 48 and 72 h): > 7
IC50 ([2]; 24 h): 29.4 ± 3.15 µM
IC50 ([2]; 48 h): 20.1 ± 1.94 µM
IC50 ([2]; 72 h): 19.7 ± 3.14 µM
SI MCF10A/MDA-MB-231 [2, 13]: 6.14
SI MCF10A/MDA-MB-231 [2, 14]: 5.38
SI MCF10A/MDA-MB-231 [2, 15]: 5.00
selectivity index (SI) MDA-MB-231 against MCF-10A ([2]; summary over 24, 48 and 72 h): > 5
IC50 ([3]; 24 h): 180 ± 3.11 µM
IC50 ([3]; 48 h): 108 ± 2.15 µM
IC50 ([3]; 72 h): 98.4 ± 3.22 µM
percentage of cells at G2/M phase ([4]; 24 h): 24.26%
percentage of cells at Sub G0/G1 phase ([4]; 24 h): 6.64%
percentage of cells at Sub G0/G1 phase ([4]; 72 h): 22.80%
Early apoptotic cells ([5]; BHMC at IC50, 24 h): 10.34%
Late apoptotic/necrotic cells ([5]; BHMC at IC50, 24 h): 8.81%
Early apoptotic cells ([5]; BHMC at IC50, 72 h): 43.44%
Late apoptotic/necrotic cells ([5]; BHMC at IC50, 72 h): 38.22%
downregulation of miR-6813-5p, miR-6132, miR-4725-3p, miR-1587, miR-6779-5p ([6]; BHMC-treated MCF-7): at least 30 folds
upregulation of top five overexpressed miRNAs (miR-184, miR-3195, miR-149-5p, miR-30a-3p, miR532-3p) ([6]; BHMC-treated MCF-7): at least 10 folds
hsa-miR-30a-3p Upregulated Fold Change ([6]; BHMC-treated vs control MCF-7): 12.9
hsa-miR-149-5p Upregulated Fold Change ([6]; BHMC-treated vs control MCF-7): 13.06
hsa-miR-184 Upregulated Fold Change ([6]; BHMC-treated vs control MCF-7): 17.58
hsa-miR-532-3p Upregulated Fold Change ([6]; BHMC-treated vs control MCF-7): 11.73
hsa-miR-1587 Downregulated Fold Change ([6]; BHMC-treated vs control MCF-7): −35.89
hsa-miR-3195 Upregulated Fold Change ([6]; BHMC-treated vs control MCF-7): 16.21
hsa-miR-4725-3p Downregulated Fold Change ([6]; BHMC-treated vs control MCF-7): −41.51
hsa-miR-6132 Downregulated Fold Change ([6]; BHMC-treated vs control MCF-7): −61.96
hsa-miR-6779-5p Downregulated Fold Change ([6]; BHMC-treated vs control MCF-7): −33.07
hsa-miR-6813-5p Downregulated Fold Change ([6]; BHMC-treated vs control MCF-7): −71.82
miR-30a-3p expression increment [7]: at least 5 fold
miR-3195 expression increment [7]: at least 5 fold
miR-6132 downregulation [7]: at least 10 folds
miR-6813-5p downregulation [7]: at least 10 folds
SNAIL mRNA expression [8]: downregulated
VEGF mRNA expression [8]: downregulated
morphological changes, light microscope [9]: reduced the MCF-7 cells number and severely distorted the MCF-7 cells shape
morphology, acridine orange and propidium iodide fluorescent microscopy [9]: presented the morphological characteristics of apoptotic cells

COc1cc(/C=C/C(=O)CC(=O)/C=C/c2ccc(O)c(OC)c2)ccc1O [Curcumin, reference compound]
IC50 ([1]; 24 h): 55.7 ± 2.77 µM
IC50 ([1]; 48 h): 45.1 ± 2.12 µM
IC50 ([1]; 72 h): 39.8 ± 1.51 µM
SI MCF10A/MCF7 [1, 10]: 3.37
SI MCF10A/MCF7 [1, 11]: 2.48
SI MCF10A/MCF7 [1, 12]: 2.51
IC50 ([2]; 24 h): 32 ± 2.81 µM
IC50 ([2]; 48 h): 26 ± 2.33 µM
IC50 ([2]; 72 h): 23 ± 2.15 µM
SI MCF10A/MDA-MB-231 [2, 13]: 5.88
SI MCF10A/MDA-MB-231 [2, 14]: 4.31
SI MCF10A/MDA-MB-231 [2, 15]: 4.35
IC50 ([3]; 24 h): 188 ± 4.52 µM
IC50 ([3]; 48 h): 112 ± 4.57 µM
IC50 ([3]; 72 h): 100 ± 4.31 µM
